# Source: patent US20240409585A1, “MACROCYCLIC IMMUNOMODULATORS” (priority 2021, published 2024)
# Numbered stars: 1 amine (or outer) side, 2 acyl side, 3 side chain; on linkers, the order of the positions; unused ones are H or OH. Bridge positions count the residues as written; N and C are the ends. Square brackets hold non-standard residues; d marks the D form. Peptide text beside a SMILES is read from it. * marks the point of attachment. ξ: configuration not given here. X39 = COc1cccc(-c2ccc(C[C@H](N[*:1])C(=O)[*:2])cc2)c1; Phe(4-COOH) = N[C@@H](Cc1ccc(C(=O)O)cc1)C(=O)O; Bip = N[C@@H](Cc1ccc(-c2ccccc2)cc1)C(=O)O; Phe(3-OMe) = COc1cccc(C[C@H](N)C(=O)O)c1; Phe(3-Me) = Cc1cccc(C[C@H](N)C(=O)O)c1; Val(3-OH) = CC(C)(O)[C@H](N)C(=O)O; NMeF = CN[C@@H](Cc1ccccc1)C(=O)O; 4Pal = N[C@@H](Cc1ccncc1)C(=O)O; Cha = N[C@@H](CC1CCCCC1)C(=O)O; Cit = NC(=O)NCCC[C@H](N)C(=O)O; AllylGly = C=CC[C@H](N)C(=O)O; Thr(3ξ) = CC(O)[C@H](N)C(=O)O; Pen = CC(C)(S)[C@H](N)C(=O)O; Dap(Me) = CNC[C@H](N)C(=O)O; Carboxymethyl = O=C(O)C*; NMeA = CN[C@@H](C)C(=O)O; Orn = NCCC[C@H](N)C(=O)O; Dab = NCC[C@H](N)C(=O)O; Dap = NC[C@H](N)C(=O)O; ξC = NC(CS)C(=O)O
# Target: T1, PE-labeled human PD-L1-Ig binding to Jurkat cell line over-expressing human PD-1 (Jurkat-PD-1) (Homo sapiens, UniProt Q15116)
# T1 construct: expressed in transfected cells; host or cells: Jurkat
# Assay: Jurkat-PD-1 Cell Binding High-Content Screening Assay (CBA): Method 1
# Conditions: Jurkat-hPD-1 cells, PE-labeled PD-L1-Ig 20 nM final; read-out: Jurkat HPDL1 PD1 IC50 (uM) (Method 1)
# T1 sequence (Q15116 25-288): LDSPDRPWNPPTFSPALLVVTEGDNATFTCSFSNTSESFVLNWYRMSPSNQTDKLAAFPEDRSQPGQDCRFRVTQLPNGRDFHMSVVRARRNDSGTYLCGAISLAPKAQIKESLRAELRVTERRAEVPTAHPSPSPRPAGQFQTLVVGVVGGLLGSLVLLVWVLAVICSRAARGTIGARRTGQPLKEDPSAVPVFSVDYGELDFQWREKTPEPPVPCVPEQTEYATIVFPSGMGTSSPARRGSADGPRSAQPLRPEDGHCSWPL
row,Structure (SMILES),IC50 [µM]
1,CC(C)C[C@@H]1NC(=O)[C@H](Cc2c[nH]c3ccccc23)NC(=O)[C@H](CC(=O)O)NC(=O)[C@H](Cc2ccc(O)cc2)NC(=O)[C@H](Cc2ccccc2)NC(=O)CSC[C@@H](C(=O)NCC(N)=O)NC(=O)[C@H](CO)NC(=O)[C@H](C(C)C)NC(=O)[C@H](CC(C)C)NC(=O)[C@H](CC(N)=O)NC(=O)[C@@H](C)NC(=O)[C@H](C)N(C)C(=O)[C@H](C(C)C)NC(=O)[C@H](Cc2ccc(-c3ccccc3)cc2)NC1=O [Compound 1729] ({CH2CO}-FYDWL[Bip]V[NMeA][dA]NLVSCG-NH2; thioether N-14),0.01
2,COc1cccc(-c2ccc(C[C@@H]3NC(=O)[C@H](C(C)C)NC(=O)[C@H](Cc4c[nH]c5ccccc45)NC(=O)[C@H](CC(=O)O)NC(=O)[C@H](Cc4ccc(O)cc4)NC(=O)[C@H](CC(N)=O)NC(=O)CSC[C@@H](C(=O)N[C@@H](C)C(N)=O)NC(=O)[C@H]([C@@H](C)O)NC(=O)[C@H](C(C)C)NC(=O)[C@H](CC(C)C)NC(=O)[C@H](CCN)NC(=O)[C@@H](CC(C)C)NC(=O)[C@H](C)N(C)C(=O)[C@H](CCCNC(=N)N)NC3=O)cc2)c1 [Compound 1211] ({CH2CO}-NYDWV[X39]R[NMeA][dL][Dab]LVTCA-NH2; thioether N-14),0.37
3,Cc1cccc(C[C@@H]2NC(=O)[C@H](CC(=O)O)NC(=O)[C@H](Cc3ccc(OCC(=O)O)cc3)NC(=O)[C@H](Cc3ccncc3)NC(=O)CSC[C@@H](C(=O)N[C@@H](CCN)C(N)=O)NC(=O)[C@H](CCC(=O)O)NC(=O)[C@H](C(C)(C)O)NC(=O)[C@H](CC3CCCCC3)NC(=O)[C@H](CCN)NC(=O)[C@@H](CC(C)C)NC(=O)[C@H](C)N(C)C(=O)[C@H](Cc3ccc(OCC(=O)O)cc3)NC(=O)[C@H](Cc3ccc(-c4ccccc4)cc3)NC(=O)[C@H](Cc3ccc(C(=O)O)cc3)NC2=O)c1 [Compound 2189] ({CH2CO}-[4Pal]Y(Carboxymethyl)D[Phe(3-Me)][Phe(4-COOH)][Bip]Y(Carboxymethyl)[NMeA][dL][Dab][Cha][Val(3-OH)]EC[Dab]-NH2; thioether N-14),0.03
4,CNC[C@@H]1NC(=O)CSC[C@@H](C(=O)N[C@@H](C)C(N)=O)NC(=O)[C@H](C(C)O)NC(=O)[C@H](C(C)C)NC(=O)[C@H](CC(C)C)NC(=O)[C@H](CCN)NC(=O)[C@@H](CC(C)C)NC(=O)[C@H](C)N(C)C(=O)[C@H](CCCNC(N)=O)NC(=O)[C@H](Cc2ccc(-c3ccccc3)cc2)NC(=O)[C@H](C(C)C)NC(=O)[C@H](Cc2c[nH]c3ccccc23)NC(=O)[C@H](CC(=O)O)NC(=O)[C@H](Cc2ccc(O)cc2)NC1=O (stereo partly drawn) [Compound 2034] ({CH2CO}-[Dap(Me)]YDWV[Bip][Cit][NMeA][dL][Dab]LV[Thr(3ξ)]CA-NH2; thioether N-14),0.06
5,COc1cccc(C[C@@H]2NC(=O)[C@H](CN)NC(=O)CSC[C@@H](C(=O)NCC(N)=O)NC(=O)[C@H](CO)NC(=O)[C@H](C(C)C)NC(=O)[C@H](CC(C)C)NC(=O)[C@H](CC(N)=O)NC(=O)[C@@H](CC(C)C)NC(=O)[C@H](C)N(C)C(=O)[C@H](C(C)C)NC(=O)[C@H](Cc3ccc(-c4ccccc4)cc3)NC(=O)[C@H](CC(C)C)NC(=O)[C@H](Cc3c[nH]c4ccccc34)NC(=O)[C@H](CC(=O)O)NC2=O)c1 [Compound 1522] ({CH2CO}-[Dap][Phe(3-OMe)]DWL[Bip]V[NMeA][dL]NLVSCG-NH2; thioether N-14),0.05
6,Cc1cccc(C[C@@H]2NC(=O)[C@H](CC(=O)O)NC(=O)[C@H](Cc3ccc(OCC(=O)O)cc3)NC(=O)[C@H](Cc3ccccc3)N(C)C(=O)CSC[C@@H](C(=O)N[C@@H](CCN)C(N)=O)NC(=O)[C@H](CO)NC(=O)[C@H](C(C)C)NC(=O)[C@H](CC3CCCCC3)NC(=O)[C@H](CCN)NC(=O)[C@@H](CC(C)C)NC(=O)[C@H](C)N(C)C(=O)[C@H](Cc3ccc(OCC(=O)O)cc3)NC(=O)[C@H](Cc3ccc(-c4ccccc4)cc3)NC(=O)[C@H](Cc3ccc(OCC(=O)O)cc3)NC2=O)c1 [Compound 1861] ({CH2CO}-[NMeF]Y(Carboxymethyl)D[Phe(3-Me)]Y(Carboxymethyl)[Bip]Y(Carboxymethyl)[NMeA][dL][Dab][Cha]VSC[Dab]-NH2; thioether N-14),0.1
7,C=CC[C@@H]1NC(=O)[C@H](CC(C)C)NC(=O)[C@H](CC(N)=O)NC(=O)[C@@H](CC(C)C)NC(=O)[C@H](C)N(C)C(=O)[C@H](C(C)C)NC(=O)[C@H](Cc2ccc(-c3ccccc3)cc2)NC(=O)[C@H](CC=C)NC(=O)[C@H](Cc2cccc(C)c2)NC(=O)[C@H](CC(=O)O)NC(=O)[C@H](Cc2ccncc2)NC(=O)[C@H](Cc2ccc(OCC(=O)O)cc2)NC(=O)CSCC(C(=O)NCC(N)=O)NC(=O)[C@H](CO)NC1=O (stereo partly drawn) [Compound 1882] ({CH2CO}-Y(Carboxymethyl)[4Pal]D[Phe(3-Me)][AllylGly][Bip]V[NMeA][dL]NL[AllylGly]S[ξC]G-NH2; thioether N-14),0.03
8,CC(C)C[C@@H]1NC(=O)[C@H](CCCN)NC(=O)[C@@H](CC(C)C)NC(=O)[C@H](C)N(C)C(=O)[C@H](CCCNC(=N)N)NC(=O)[C@H](Cc2ccc(-c3ccccc3)cc2)NC(=O)[C@H](C(C)C)NC(=O)[C@H](Cc2c[nH]c3ccccc23)NC(=O)[C@H](CC(=O)O)NC(=O)[C@H](Cc2cnc[nH]2)NC(=O)[C@H](CC(N)=O)NC(=O)CSC[C@@H](C(=O)N[C@@H](C)C(N)=O)NC(=O)[C@H]([C@@H](C)O)NC(=O)[C@H](C(C)C)NC1=O [Compound 1131] ({CH2CO}-NHDWV[Bip]R[NMeA][dL][Orn]LVTCA-NH2; thioether N-14),0.28
9,CC(C)C[C@@H]1NC(=O)[C@H](Cc2c[nH]c3ccccc23)NC(=O)[C@H](CC(=O)O)NC(=O)[C@H](Cc2ccc(O)cc2)NC(=O)[C@H](Cc2ccccc2)NC(=O)CSC[C@@H](C(=O)N[C@@H](C)C(N)=O)NC(=O)[C@H](CO)NC(=O)[C@H](CN)NC(=O)[C@H](CC(C)C)NC(=O)[C@H](CC(N)=O)NC(=O)[C@@H](C)NC(=O)[C@H](C)N(C)C(=O)[C@H](C(C)C)NC(=O)[C@H](Cc2ccc(-c3ccccc3)cc2)NC1=O [Compound 1532] ({CH2CO}-FYDWL[Bip]V[NMeA][dA]NL[Dap]SCA-NH2; thioether N-14),0.17
10,CC(C)C[C@@H]1NC(=O)[C@H](CCN)NC(=O)[C@@H](CC(C)C)NC(=O)[C@H](C)N(C)C(=O)[C@H](Cc2ccccc2)NC(=O)[C@H](Cc2ccc(-c3ccccc3)cc2)NC(=O)[C@H](C(C)C)NC(=O)[C@H](Cc2c[nH]c3ccccc23)NC(=O)[C@H](CC(=O)O)NC(=O)[C@H](Cc2ccc(O)cc2)NC(=O)[C@H](CC(N)=O)NC(=O)CSC[C@@H](C(=O)N[C@@H](C)C(N)=O)NC(=O)[C@H]([C@@H](C)O)NC(=O)[C@H](C(C)C)NC1=O [Compound 1272] ({CH2CO}-NYDWV[Bip]F[NMeA][dL][Dab]LVTCA-NH2; thioether N-14),0.16
11,CC(C)C[C@@H]1NC(=O)[C@H](Cc2c[nH]c3ccccc23)NC(=O)[C@H](CC(=O)O)NC(=O)[C@H](Cc2ccc(OCC(=O)O)cc2)NC(=O)[C@H](Cc2ccc(OCC(=O)O)cc2)NC(=O)CSC(C)(C)[C@@H](C(N)=O)NC(=O)[C@H](CO)NC(=O)[C@H](C(C)C)NC(=O)[C@H](CC(C)C)NC(=O)[C@H](CCN)NC(=O)[C@@H](CC(C)C)NC(=O)[C@H](C)N(C)C(=O)[C@H](C(C)C)NC(=O)[C@H](Cc2ccc(-c3ccccc3)cc2)NC1=O [Compound 2260] ({CH2CO}-Y(Carboxymethyl)Y(Carboxymethyl)DWL[Bip]V[NMeA][dL][Dab]LVS[Pen]-NH2; thioether N-14),0.26
